Results: patent US20120165285A1, “COMBINED PREPARATION FOR USE AS A MEDICAMENT” (priority 2009, published 2012)
pEC50: −log10 of the molar value.

Experiments:
[1] = test system: rat adjuvant model of arthritis; assay: Rat adjuvant model of arthritis, analgesic relief; type: in vivo
adenosine A2A receptor = adenosine A2A receptor (Homo sapiens, UniProt P29274); assay: EC50 at the adenosine A2A receptor; type: biochemical
From the text: For the avoidance of doubt, the EC50 value of a compound is defined herein as the concentration of the compound that provokes a receptor response halfway between the baseline receptor response and the maximum receptor response (as determined, for example, using a dose-response curve).
The EC50 value should be determined under standard conditions (balanced salt solutions buffered to pH 7.4). For EC50 determinations using isolated membranes, cells and tissues this would be in buffered salt solution at pH 7.4 (e.g. cell culture medium), for example as in Daly et al., Pharmacol. (1993) 46, 91-100), or preferably as in Tilburg et al (J. Med. Chem. (2002) 45, 91-100). The EC50 could also be determined in vivo by measuring A2A adenosine receptor mediated responses in a normal healthy animal, or even in a tissue perfused under normal conditions (i.e. oxygenated blood, or oxygenated isotonic media, also buffered at pH 7.4) in a normal healthy animal.

A2A adenosine receptor = A2A adenosine receptor (Homo sapiens, UniProt P29274); settings: pH below 7.4; cited from earlier work
Chain of A2A adenosine receptor (P29274 whole entry): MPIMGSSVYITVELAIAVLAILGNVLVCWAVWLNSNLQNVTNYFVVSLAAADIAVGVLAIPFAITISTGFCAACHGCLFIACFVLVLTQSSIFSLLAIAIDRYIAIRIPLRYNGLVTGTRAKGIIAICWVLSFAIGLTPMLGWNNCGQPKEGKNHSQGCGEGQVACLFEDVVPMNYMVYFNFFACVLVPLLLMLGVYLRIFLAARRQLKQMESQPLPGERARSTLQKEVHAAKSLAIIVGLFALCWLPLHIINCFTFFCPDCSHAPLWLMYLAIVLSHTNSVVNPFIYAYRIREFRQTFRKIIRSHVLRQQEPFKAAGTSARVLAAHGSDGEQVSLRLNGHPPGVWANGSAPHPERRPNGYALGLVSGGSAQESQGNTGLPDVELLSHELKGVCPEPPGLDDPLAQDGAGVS

[2] = test system: patients suffering from diabetic neuropathy; assay: Phase 2A clinical trial, diabetic neuropathic pain; type: in vivo, human
Protocol: In a Phase 2A clinical trial, patients suffering from diabetic neuropathy were administered 2-methoxyadenosine (2-MeOAd)) (7 mg 3 times per day) or a placebo over a four week period, and asked to rate their pain intensity (diabetic neuropathic pain) once per week based on an 11 point Likert Scale (0-10). The patients included some who were already being administered with a calcium channel blocker at a conventional therapeutic dose. The calcium channel blockers administered included Amlodipine (5-10 mg once per day), Verapamil, or Felodipine.
Patients in the clinical trial also completed the Short form McGill pain questionnaire (SF-MPQ) (Melzack, Pain, 1987, August; 30(2):191-7). The main component of the SF-MPQ consists of 15 descriptors (11 sensory; 4 affective) which are rated on an intensity scale as […], 1=mild, 2=moderate or 3=severe. Three pain scores are derived from the sum of the intensity rank values of the words chosen for sensory, affective and total descriptors. The SF-MPQ also includes the Present Pain Intensity (PPI) index of the standard MPQ and a visual analogue scale (VAS).

[3] = patients also administered a calcium channel blocker
[4] = with calcium channel blocker, P<0.02

Chain of adenosine A2A receptor (P29274 whole entry): as above

pEC50 (adenosine A2A receptor): ~6.00
Structure (SMILES): COc1nc(N)c2ncn([C@@H]3O[C@H](CO)[C@@H](O)[C@H]3O)c2n1 [2-methoxyadenosine]
minimum plasma concentration giving maximal analgesic relief [1]: 0.06 µM | affinity for adenosine receptors at pH below pH 7.4 (A2A adenosine receptor): increased affinity | effect on 24-hour pain intensity compared with placebo [2, 3]: significant effect | responder rate, patients who experienced >30% pain relief [2, 3]: 74% | responder rate, patients who experienced >50% pain relief [2, 3]: 43% | median change from baseline in 24-hour pain intensity ([2]; patients also administered a calcium channel blocker, after 4 weeks, 7 mg 3 times per day, 11 point Likert Scale, P<0.01): more than −2.5 | effect on 24-hour pain intensity compared with placebo ([2]; patients not also administered a calcium channel blocker): no effect | median change from baseline in 24-hour pain intensity, difference below placebo ([2]; whole patient population (with and without calcium channel blocker), Week 4, 7 mg 3 times per day, 11 point Likert Scale): 0.7 | patient global impression of change (PGIC), 7 point scale ([2]; with calcium channel blocker): favourable effect | Clinical global impression of change (CGIC), 7 point scale [2, 4]: reduction | pain rated by the VAS (SF-MPQ) [2, 4]: reduction | SF-MPQ total pain intensity score ([2]; with calcium channel blocker, P<0.03): reduction | present pain intensity (PPI, SF-MPQ) ([2]; with calcium channel blocker, P<0.04): reduction
